Read-outs that look alike come from different tables or passages of the source.

One data set concerns RET. The conditions noted are these: patients with RET-altered NSCLC and MTC; cited from earlier work.
A short description of data set [1]: Co-milling co-crystal screening, XRPD. The format is physicochemical. The conditions noted are these: co-milling with freebase. The method, then: About 30 mg of Compound (I) freebase and 1.05 eq. of co-former were direct weighed into the milling capsule and manually mixed before the addition of 1 volume of solvent (MtBE, MeOAc, or EtOH). Each system was milled once for 30 seconds before solids were collected. Samples of the wet material were taken for XRPD of the ‘wet’ material before drying under active vacuum at 50° C. for 2 hours. Unique patterns were further exposed to 97% R.H. for 24 hours.

Data set [2] can be described thus: Co-melting co-crystal screening, XRPD. The following applies: co-melting with pralsetinib freebase, 1.05 eq. co-former. The format is physicochemical. Here is the method: The resulting powder was packed into a 100 μL DSC pan and heated at a rate of 10° C./min to 10° C. above the melting temperature of the lowest melting component. The experiment was isothermally held for 5 min before cooling to room temperature at a rate of 10° C./min. Samples were then taken for XRPD.

Data set [3] can be described thus: Qualitative water solubility of salts (salt screen). The format is physicochemical.
A short description of data set [4]: Salt screening: XRPD of wet cake, after drying under vacuum at 50° C., after exposure to 97% relative humidity. It is filed as physicochemical. The following applies: XRPD; for stability of salt solid form to humidification: 97% (>95%) relative humidity; for stability of salt solid form to drying: vacuum at 50° C. Here is the method:
Stock solutions of counter-ion were prepared in EtOH, MeOH, or EtOAc, depending on solubility. […] The solvent was allowed to evaporate at room temperature over the weekend and then placed at 50° C. under vacuum for 3 hours to remove any remaining solvent. Approximately 25 volumes solvent (0.6 mL) was added to each vial for screening. The three solvents selected were EtOH, EtOAc, and IPA:water (9:1 vol). […] XRPD analysis was done in three stages. XRPD of the wet cake was done for all samples. Unique solids were then left on XRPD plates and dried under vacuum at 50° C. XRPD of unique dry solids was then done. […] The humid environment was generated by placing a beaker of saturated potassium sulfate in water in a sealed container. All XRPD patterns were compared to counter ion XRPD patterns and known free base patterns. Where solids were not of sufficient quantity to isolate, the solvent was evaporated at room temperature, the material dried at 50° C. under active vacuum for 3 hours, and then reslurried at room temperature in either MtBE or IPAc overnight after heating to 45° C. for 30 minutes.

Data set [5] in a line: Thermal treatment in DSC followed by XRPD (Example 2G). The format is physicochemical. An excerpt:
Select solids were used for thermal treatment in DSC. Solids were heated to specified temperature and then cooled back to room temperature for analysis by XRPD.

A short description of data set [6]: Solubility in water and simulated fluids (fasted/fed state simulated intestinal fluid, fasted state simulated gastric fluid). The format is physicochemical.
A short description of data set [7]: Competitive slurry experiments between free base solid forms. The format is physicochemical. The conditions noted are these: for competitive slurry in methanol:water: high ratios of water to methanol and lower temperatures.
Data set [8] can be described thus: Humidity exposure, 75% relative humidity at 40° C. for one week, XRPD. It is filed as physicochemical. The following applies: for stability on exposure to 75% relative humidity at 40° C.: one week / 7 days, XRPD.
A short description of data set [9]: Dynamic vapor sorption (DVS). The conditions noted are these: for hygroscopicity (words): DVS; for XRPD / form stability after DVS humidity cycling: XRPD before and after DVS; for total mass change by DVS: between 2% and 95% relative humidity. The format is physicochemical. The method, then: Dynamic Vapor Sorption (DVS) was done using a DVS Intrinsic 1. The sample is loaded into a sample pan and suspended from a microbalance. A typical sample mass for DVS measurement is 25 mg. Nitrogen gas bubbled through distilled water provides the desired relative humidity. A typical measurement comprises the steps: • 1—Equilibrate at 50% RH • 2—50% to 2%. (50%, 40%, 30%, 20%, 10% and 2%) • a. Hold minimum of 5 mins and maximum of 60 minutes at each humidity. The pass criteria is less than 0.002% change • 3—2% to 95% (2%, 10%, 20%, 30%, 40%, 50%, 60%, 70%, 80%, 90%, 95%) • a. Hold minimum of 5 mins and maximum of 60 minutes at each humidity. The pass criteria is less than 0.002% change • 4—95% to 2% (95%, 80%, 70%, 60%, 50%, 40%, 30%, 20%, 10%, 2%) • a. Hold minimum of 5 mins and maximum of 60 minutes at each humidity. The pass criteria is less than 0.002% change • 5—2% to 50% (2%, 10%, 20%, 30%, 40%, 50%) • a. Hold minimum of 5 mins and maximum of 60 minutes at each humidity. The pass criteria is less than 0.002% change High Pressure Liquid Chromatography (HPLC)
Dynamic Vapor Sorption (DVS) was performed using a DVS Intrinsic 1. The samples (12-31 mg) was loaded into a sample pan, suspended from a microbalance and exposed to a humidified stream of nitrogen gas. The sample was held for a minimum of 5 min at each level and only progressed to the next humidity level if there was <0.002% change in weight between measurements (interval: 60 seconds) or 240 min had elapsed. The following program was used: • 1—Equilibration at 50% RH • 2—50% to 2%. (50%, 40%, 30%, 20%, 10% and 2%) • 3—2% to 95% (2%, 10%, 20%, 30%, 40%, 50%, 60%, 70%, 80%, 90%, 95%) • 4—95% to 2% (95%, 80%, 70%, 60%, 50%, 40%, 30%, 20%, 10%, 2%) • 5—2% to 50% (2%, 10%, 20%, 30%, 40%, 50%) High Performance Liquid Chromatography (HPLC)

A short description of data set [10]: DSC and TGA/DSC thermal analysis. It is filed as physicochemical. The conditions noted are these: exotherm. The method, then:
Differential scanning calorimetry was done using a Mettler Toledo DSC3+. The desired amount of sample is weighed directly in a hermetic aluminum pan with pin-hole. A typical sample mass for is 3-5 mg. A typical temperature range is 30° C. to 300° C. at a heating rate of 10° C. per minute (total time of 27 minutes). Typical parameters for DSC are listed below.
Thermogravimetric analysis and differential scanning calorimetry was done using a Mettler Toledo TGA/DSC3+. The desired amount of sample is weighed directly in a hermetic aluminum pan with pin-hole. A typical sample mass for the measurement is 5-10 mg. A typical temperature range is 30° C. to 300° C. at a heating rate of 10° C. per minute (total time of 27 minutes). Protective and purge gasses are nitrogen (20-30 mL/min and 50-100 mL/min). Typical parameters for DSC/TGA are listed below.
Differential scanning calorimetry was performed using a Mettler Toledo DSC3+. The sample (3-5 mg) was weighed directly in a 40 μL hermetic aluminum pan with pin-hole and analyzed according to the parameters below:
Thermogravimetric analysis and differential scanning calorimetry were performed on the same sample simultaneously using a Mettler Toledo TGA/DSC3+. […] The desired amount of sample (5-10 mg) was weighed directly in a hermetic aluminum pan with pin-hole and analyzed according to the parameters below: […]
For orientation: Differential scanning calorimetry records heat flow against a reference as temperature is scanned.

For the compound `CO[C@]1(C(=O)N[C@@H](C)c2ccc(-n3cc(F)cn3)nc2)CC[C@H](c2nc(C)cc(Nc3cc(C)[nH]n3)n2)CC1` [Compound (I), (cis)-N-((S)-1-(6-(4-fluoro-1H-pyrazol-1-yl)pyridin-3-yl)ethyl)-1-methoxy-4-(4 methyl-6-(5-methyl-1H-pyrazol-3-ylamino)pyrimidin-2-yl)cyclohexanecarboxamide], in the data set on RET, the RET signaling entry is recorded as “attenuated”, the clinical responses result is “durable clinical responses” and the off target toxicity result is given as “without notable off target toxicity”.
As to `O.O.O=c1c(O)c(-c2ccc(O)c(O)c2)oc2cc(O)cc(O)c12` [Quercetin Dihydrate], the “Wet (XRPD)” value in [1] (solvent MtBE, MeOAc, EtOH) is on record as “FB-C + quercetin”. Also, the “Dry (XRPD)” value in data set [2] is reported as “Am”.
On to `O=C1NS(=O)(=O)c2ccccc21` [Saccharin], for which the “Wet (XRPD)” value in data set [1] (solvent EtOH) is given as “Am. + 1 peak”; in data set [1] (solvent MeOAc), “Am. + trace FB-C”; in data set [1] (solvent MtBE), “FB-C + saccharin”. Also, the “Dry (XRPD)” value in [2] is recorded as “Am”.
Regarding `CO[C@]1(C(=O)N[C@@H](C)c2ccc(-n3cc(F)cn3)nc2)CC[C@H](c2nc(C)cc(Nc3cc(C)[nH]n3)n2)CC1` [Solid Form 10-A, pralsetinib], in [3] (listed as salicylate 10-A), the qualitative water solubility result was “low solubility”. For the same compound, in data set [4] (listed as 10-A), the “stability of salt solid form to humidification” value was “stable” and the “stability of salt solid form to drying” value was “stable”.
Consider `CO[C@]1(C(=O)N[C@@H](C)c2ccc(-n3cc(F)cn3)nc2)CC[C@H](c2nc(C)cc(Nc3cc(C)[nH]n3)n2)CC1` [Solid Form 12-A, pralsetinib], for which the qualitative water solubility entry in data set [3] is recorded as “low”. In data set [4] (listed as Pattern 12-A), the “stability of salt solid form to humidification” value is “stable” and the “stability of salt solid form to drying” value is “stable”.
Consider `CO[C@]1(C(=O)N[C@@H](C)c2ccc(-n3cc(F)cn3)nc2)CC[C@H](c2nc(C)cc(Nc3cc(C)[nH]n3)n2)CC1` [Solid Form A, pralsetinib], for which, in data set [5], the “solid form after a hold at the melting point” value is “did not convert to material with XRPD Pattern H”. Moreover, in [6], the “solubility in simulated gastric fluid” value was “high solubility”, the “solubility in simulated intestinal fluid” value was “low solubility” and the “solubility in water” value is recorded as “low solubility”. Also, the “competitive slurry in methanol:water” value in data set [7] is “converted to Solid Form C”. Besides, in data set [7] (listed as Pattern A), the “competitive slurry in methanol:water” value was “converted to a praletinib free base material characterized by XRPD Pattern C”; the “Competitive slurry MeOH: water (1:1 vol) at 23 and 50° C.” value is “A converts to C”; the “Competitive slurry isopropanol, MeOH:MtBE” value is recorded as “A stable”. In addition, in [8], the “conversion to hydrate Solid Form C on prolonged / high humidity exposure” value was “did not convert to Solid Form C” and the “stability on exposure to 75% relative humidity at 40° C.” value is on record as “stable”. Further, the “stability on exposure to 75% relative humidity at 40° C.” value in [8] (listed as Pattern A) is reported as “remained unchanged”. Moreover, in data set [9], the “reversibility of the DVS mass change” value is on record as “reversible”, the “share of the DVS mass change occurring above 70% relative humidity” value came to 80%, the “share of the DVS mass change occurring above 80% relative humidity” value came to 70% and the “hygroscopicity (words)” value was “hygroscopic”. Further, in data set [9], the “XRPD / form stability after DVS humidity cycling” value is “stable” and the “total mass change by DVS” value was 10.2 wt. %. Also, in data set [9] (listed as solid form A), the “hygroscopicity (words)” value is recorded as “hygroscopic” and the “XRPD / form stability after DVS humidity cycling” value is reported as “Pattern A”. The “DVS Water Mass Change (wt. %)” value in [9] (Table 3E, listed as Pattern A) turned out to be 10.2 wt. %. For the same compound, the “reversible mass change by DVS” value in data set [9] (between 2-95% relative humidity) is recorded as “about 10%”. Further, in data set [9] (between 2 and 95% relative humidity at 25° C.), the “water mass gained by dynamic vapor sorption” value is recorded as 10%. Moreover, in data set [9] (between 15 to 75% relative humidity), the water pick-up result is “about 2%”.
Take `CO[C@]1(C(=O)N[C@@H](C)c2ccc(-n3cc(F)cn3)nc2)CC[C@H](c2nc(C)cc(Nc3cc(C)[nH]n3)n2)CC1` [Solid Form B, pralsetinib]: in data set [5] (190° C.), the “solid form after heating to 190° C.” value is listed as “converted to solid form A”. In data set [8] (listed as Pattern B), the “conversion to hydrate Solid Form C on prolonged / high humidity exposure” value is “not observed to convert back to hydrate XRPD Pattern C” and the “stability on exposure to 75% relative humidity at 40° C.” value was “remained unchanged”. Moreover, in [9], the “total mass change by DVS” value came out at 1.4 wt. %.
`CO[C@]1(C(=O)N[C@@H](C)c2ccc(-n3cc(F)cn3)nc2)CC[C@H](c2nc(C)cc(Nc3cc(C)[nH]n3)n2)CC1` [Solid Form F, pralsetinib]: in [5] (140° C.), the “solid form after heating to 140° C.” value is “converted to solid form B”.
Turning to `COc1cc(C(=O)O)ccc1O` [Vanillic Acid], the “Wet (XRPD)” value in data set [1] (solvent EtOH) was “FB-C”; in data set [1] (solvent MtBE, MeOAc) it was “FB-C + vanillic acid”. Also, the “Dry (XRPD)” value in data set [2] was “Am”.
With `CO[C@]1(C(=O)N[C@@H](C)c2ccc(-n3cc(F)cn3)nc2)CC[C@H](c2nc(C)cc(Nc3cc(C)[nH]n3)n2)CC1` [freebase (Pattern FB-A)], the “Endotherm Onset, event marked (exo)” value in data set [10] is given as 162.7 (exo) ° C. In data set [8] (XRPD pattern after exposure), the “Stability 40° C./75% RH” value is “Stable”. Moreover, the “DVS Mass Change” value in data set [9] (glutarate and succinate: between 2% and 90% relative humidity) stood at 10.2 wt. %.
For Urea, the “Wet (XRPD)” value in [1] (solvent EtOH) is 16-B + FB-C; in data set [1] (solvent MtBE, MeOAc), “FB-C + urea”. Moreover, the “Humidity (XRPD)” value in data set [1] (solvent EtOH, 97% R.H. for 24 hours) was 16-B + FB-C. Further, the “Dry (XRPD)” value in data set [2] is given as “FB-A +”.

These data come from US12448366B2, “Solid forms of pralsetinib” (Rigel Pharmaceuticals, Inc., priority 2020, dated 2025).
